One block for each compound: values may come before it. Calls of active or inactive are those of the source.
What was measured:
[1] = molecular target: T1, Kappa-type opioid receptor (Homo sapiens, UniProt P41145); experiment: SAR analysis of small molecule antagonists of the kappa opioid receptor via a luminescent beta-arrestin assay - Set 4. [Related pubchem assays (depositor defined):AID1777, AID1778, AID1785, AID1786, AID1966, AID2133, AID2136, AID2285]; type: functional
[2] = molecular target: T1, Kappa-type opioid receptor; experiment: SAR analysis of small molecule antagonists of the kappa opioid receptor via a luminescent beta-arrestin assay - Set 5. [Related pubchem assays (depositor defined):AID1778, AID1785]; type: functional
[3] = molecular target: T2, Short transient receptor potential channel 4 (Mus musculus, UniProt Q9QUQ5); experiment: mouse TRPC4 channel activators, dose response, cell-based, HEK293 TRPC4/mu-opioid, Fluo-4 calcium (AID 434937); type: functional
T2 sequence (Q9QUQ5 whole entry): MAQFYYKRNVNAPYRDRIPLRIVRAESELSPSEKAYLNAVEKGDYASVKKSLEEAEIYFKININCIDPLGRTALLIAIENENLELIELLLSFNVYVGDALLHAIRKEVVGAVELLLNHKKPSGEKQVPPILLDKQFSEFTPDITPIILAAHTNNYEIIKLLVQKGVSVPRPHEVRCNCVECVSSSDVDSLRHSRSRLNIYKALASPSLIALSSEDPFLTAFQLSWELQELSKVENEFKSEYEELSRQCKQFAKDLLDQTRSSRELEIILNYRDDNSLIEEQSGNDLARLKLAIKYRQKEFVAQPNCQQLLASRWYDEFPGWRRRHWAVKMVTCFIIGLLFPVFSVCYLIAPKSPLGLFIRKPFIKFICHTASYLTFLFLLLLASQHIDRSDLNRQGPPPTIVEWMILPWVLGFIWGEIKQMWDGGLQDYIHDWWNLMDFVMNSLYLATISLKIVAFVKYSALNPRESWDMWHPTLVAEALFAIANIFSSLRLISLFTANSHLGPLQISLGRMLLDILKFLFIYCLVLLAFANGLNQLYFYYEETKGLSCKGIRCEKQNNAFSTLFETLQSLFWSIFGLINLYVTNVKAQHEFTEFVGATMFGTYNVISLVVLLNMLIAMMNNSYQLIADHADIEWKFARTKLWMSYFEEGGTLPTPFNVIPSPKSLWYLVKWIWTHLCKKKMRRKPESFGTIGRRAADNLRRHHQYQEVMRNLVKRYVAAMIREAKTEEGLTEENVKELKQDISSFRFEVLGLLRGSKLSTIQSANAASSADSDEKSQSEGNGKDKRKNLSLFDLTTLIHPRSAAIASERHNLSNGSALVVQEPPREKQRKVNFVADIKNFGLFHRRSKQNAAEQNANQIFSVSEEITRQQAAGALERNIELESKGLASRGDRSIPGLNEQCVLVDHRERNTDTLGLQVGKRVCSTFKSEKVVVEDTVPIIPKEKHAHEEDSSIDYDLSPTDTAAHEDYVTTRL

[4] = molecular target: T3, Coagulation factor XII (Homo sapiens, UniProt P00748); type: functional;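 further: activated factor XIIa alpha cleaving a fluorogenic AMC peptide substrate; inhibitor potency from loss of enzyme activity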
T3 sequence (P00748 whole entry): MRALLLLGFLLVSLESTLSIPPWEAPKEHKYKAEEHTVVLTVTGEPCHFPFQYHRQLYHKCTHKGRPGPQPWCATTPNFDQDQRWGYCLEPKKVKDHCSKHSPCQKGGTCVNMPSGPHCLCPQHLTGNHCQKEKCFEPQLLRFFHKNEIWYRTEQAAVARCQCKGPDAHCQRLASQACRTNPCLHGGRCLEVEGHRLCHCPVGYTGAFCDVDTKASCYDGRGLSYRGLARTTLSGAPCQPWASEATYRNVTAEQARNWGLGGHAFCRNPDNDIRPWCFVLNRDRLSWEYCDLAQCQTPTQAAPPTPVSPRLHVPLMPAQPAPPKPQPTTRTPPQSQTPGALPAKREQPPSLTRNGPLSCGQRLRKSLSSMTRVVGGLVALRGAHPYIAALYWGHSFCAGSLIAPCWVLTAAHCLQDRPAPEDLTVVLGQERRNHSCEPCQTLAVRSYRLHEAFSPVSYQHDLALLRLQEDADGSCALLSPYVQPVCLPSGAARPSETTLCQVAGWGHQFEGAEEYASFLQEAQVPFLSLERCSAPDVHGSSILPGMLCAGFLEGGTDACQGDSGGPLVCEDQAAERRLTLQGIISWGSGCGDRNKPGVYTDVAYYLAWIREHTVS

[5] = molecular target: Intestinal-type alkaline phosphatase (Homo sapiens, UniProt P09923); experiment: human intestinal alkaline phosphatase activators, dose response, biochemical, luminescence, uHTS hits (AID 463120); type: functional
Intestinal-type alkaline phosphatase, sequence (P09923 whole entry): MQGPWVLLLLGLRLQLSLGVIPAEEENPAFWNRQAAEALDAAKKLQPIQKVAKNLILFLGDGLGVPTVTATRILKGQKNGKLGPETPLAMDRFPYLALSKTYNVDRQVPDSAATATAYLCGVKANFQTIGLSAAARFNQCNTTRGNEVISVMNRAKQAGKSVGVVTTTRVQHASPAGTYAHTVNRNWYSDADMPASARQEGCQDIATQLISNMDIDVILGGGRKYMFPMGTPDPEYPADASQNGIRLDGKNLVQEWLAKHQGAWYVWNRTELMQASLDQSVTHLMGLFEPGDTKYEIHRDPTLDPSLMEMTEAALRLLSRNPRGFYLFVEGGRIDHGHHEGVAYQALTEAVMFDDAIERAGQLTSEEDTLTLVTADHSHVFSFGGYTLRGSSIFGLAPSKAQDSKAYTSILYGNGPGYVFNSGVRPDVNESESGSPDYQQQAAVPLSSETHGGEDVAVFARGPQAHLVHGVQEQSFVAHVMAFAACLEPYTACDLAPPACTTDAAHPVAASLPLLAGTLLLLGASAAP

[6] = molecular target: T4, Cannabinoid receptor 1 (Homo sapiens, UniProt P21554); experiment: SAR analysis of antagonists of the Cannabinoid Receptor 1 using an Image-Based Assay - Set 4. [Related pubchem assays (depositor defined):AID2013, AID2026]; type: functional
T4 sequence (P21554 whole entry): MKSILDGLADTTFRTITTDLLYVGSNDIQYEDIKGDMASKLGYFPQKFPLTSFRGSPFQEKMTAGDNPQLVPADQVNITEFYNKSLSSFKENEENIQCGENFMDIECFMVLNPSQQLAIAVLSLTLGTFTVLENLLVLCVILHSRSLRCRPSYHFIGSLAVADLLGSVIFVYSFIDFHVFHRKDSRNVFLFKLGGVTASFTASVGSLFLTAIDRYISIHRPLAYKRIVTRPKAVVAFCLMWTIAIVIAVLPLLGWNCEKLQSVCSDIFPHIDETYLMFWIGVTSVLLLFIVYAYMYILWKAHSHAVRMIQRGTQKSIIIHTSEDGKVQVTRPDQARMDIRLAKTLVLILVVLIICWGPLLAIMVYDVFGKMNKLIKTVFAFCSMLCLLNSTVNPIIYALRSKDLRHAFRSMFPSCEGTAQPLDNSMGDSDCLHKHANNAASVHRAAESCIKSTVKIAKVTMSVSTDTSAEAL

[7] = molecular target: G-protein coupled receptor 55 (Homo sapiens, UniProt Q9Y2T6); experiment: SAR Analysis of Selective Antagonists of GPR55 using an Image-Based Assay - Set 4. [Related pubchem assays (depositor defined):AID2013, AID2026]; type: functional;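 further: antagonism of response to 5 µM lysophosphatidylinositol agonist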
G-protein coupled receptor 55, sequence (Q9Y2T6 whole entry): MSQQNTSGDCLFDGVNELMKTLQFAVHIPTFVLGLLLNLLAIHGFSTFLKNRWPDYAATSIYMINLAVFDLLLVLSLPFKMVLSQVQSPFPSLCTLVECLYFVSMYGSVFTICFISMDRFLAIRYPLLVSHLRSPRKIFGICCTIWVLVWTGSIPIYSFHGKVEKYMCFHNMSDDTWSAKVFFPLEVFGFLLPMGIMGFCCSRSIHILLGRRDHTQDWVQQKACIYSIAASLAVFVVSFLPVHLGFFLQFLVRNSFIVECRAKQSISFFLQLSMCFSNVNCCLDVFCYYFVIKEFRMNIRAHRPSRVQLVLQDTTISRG

[8] = molecular target: T5, G-protein coupled receptor 35 (Homo sapiens, UniProt Q9HC97); experiment: SAR analysis of Antagonists of the GPR35 Receptor using an Image-Based Assay - Set 6. [Related pubchem assays (depositor defined):AID2013, AID2026]; type: functional
T5 sequence (Q9HC97 whole entry): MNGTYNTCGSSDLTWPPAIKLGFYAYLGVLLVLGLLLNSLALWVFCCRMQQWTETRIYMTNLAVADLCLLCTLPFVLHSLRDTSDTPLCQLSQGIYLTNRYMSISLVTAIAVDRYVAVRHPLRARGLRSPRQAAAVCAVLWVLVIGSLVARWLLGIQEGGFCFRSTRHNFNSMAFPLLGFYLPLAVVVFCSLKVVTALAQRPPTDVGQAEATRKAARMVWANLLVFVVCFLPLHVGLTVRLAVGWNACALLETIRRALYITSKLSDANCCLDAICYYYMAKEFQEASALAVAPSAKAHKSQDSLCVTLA

[9] = molecular target: T6, Cannabinoid receptor 2 (Homo sapiens, UniProt P34972); experiment: SAR analysis of antagonists of the Cannabinoid Receptor 2 using an Image-Based Assay - Set 3. [Related pubchem assays (depositor defined):AID2013, AID2026]; type: functional
T6 sequence (P34972 whole entry): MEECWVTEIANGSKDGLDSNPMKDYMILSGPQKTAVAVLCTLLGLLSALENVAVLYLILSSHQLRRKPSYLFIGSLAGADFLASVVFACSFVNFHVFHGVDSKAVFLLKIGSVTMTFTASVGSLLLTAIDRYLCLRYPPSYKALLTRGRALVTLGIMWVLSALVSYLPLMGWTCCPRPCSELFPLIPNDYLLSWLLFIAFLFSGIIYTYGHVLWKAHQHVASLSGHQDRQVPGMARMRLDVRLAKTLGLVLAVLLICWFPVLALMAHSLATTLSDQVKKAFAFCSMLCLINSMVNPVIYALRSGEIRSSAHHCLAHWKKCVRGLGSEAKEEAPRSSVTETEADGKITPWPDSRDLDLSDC

[10] = molecular target: T5, G-protein coupled receptor 35; experiment: SAR analysis of Agonists of the GPR35 Receptor using an Image-Based Assay - Set 4. [Related pubchem assays (depositor defined):AID2013, AID2026]; type: functional
[11] = molecular target: T6, Cannabinoid receptor 2; experiment: SAR analysis of agonists of the Cannabinoid Receptor 2 using an Image-Based Assay - Set 3. [Related pubchem assays (depositor defined):AID2013, AID2026]; type: functional
[12] = molecular target: T4, Cannabinoid receptor 1; experiment: SAR analysis of agonists of the Cannabinoid Receptor 1 using an Image-Based Assay - Set 4. [Related pubchem assays (depositor defined):AID2013, AID2026]; type: functional
[13] = molecular target: Mucolipin-3 (Homo sapiens, UniProt Q8TDD5); experiment: Fluorescence counterscreen assay for […] agonists: dose response cell-based high-throughput screening assay to identify agonists of the transient receptor potential channel ML3 (TRPML3). [Related pubchem assays: 1424, 1448 ]; type: functional
Mucolipin-3, sequence (Q8TDD5 whole entry): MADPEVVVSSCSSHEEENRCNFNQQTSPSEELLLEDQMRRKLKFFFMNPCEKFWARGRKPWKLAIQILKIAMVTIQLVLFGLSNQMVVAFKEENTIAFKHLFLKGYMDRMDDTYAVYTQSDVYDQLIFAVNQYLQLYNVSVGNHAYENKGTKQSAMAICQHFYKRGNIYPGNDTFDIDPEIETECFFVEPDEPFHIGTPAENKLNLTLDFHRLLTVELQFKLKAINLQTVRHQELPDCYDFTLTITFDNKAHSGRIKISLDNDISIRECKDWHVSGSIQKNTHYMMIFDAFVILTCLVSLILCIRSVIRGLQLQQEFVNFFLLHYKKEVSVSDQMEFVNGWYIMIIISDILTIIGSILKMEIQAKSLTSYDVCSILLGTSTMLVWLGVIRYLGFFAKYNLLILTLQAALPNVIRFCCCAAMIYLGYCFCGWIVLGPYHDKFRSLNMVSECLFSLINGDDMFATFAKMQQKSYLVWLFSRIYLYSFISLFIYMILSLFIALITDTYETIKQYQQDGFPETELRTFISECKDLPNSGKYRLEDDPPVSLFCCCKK

[14] = Counterscreen for IDE inhibitors: Luminescence-based cell-based high throughput dose response assay to identify compounds that are cytotoxic to HEK cells. [Related pubchem assays: 434962 (Primary screen (IDE inhibitors in singlicate)), 449730 (Counterscreen (Cytotoxicity in triplicate)), 435028 (Confirmation (IDE inhibitors in triplicate)) …; type: functional; settings: HEK293
[15] = molecular target: T7, Insulin-degrading enzyme (Homo sapiens, UniProt P14735); experiment: Dose Response: Fluorescence polarization-based cell-based high throughput dose response assay for inhibitors of insulin-degrading enzyme (IDE). [Related pubchem assays: 434962 (Primary screen (IDE inhibitors in singlicate)), 449730 (Counterscreen (Cytotoxicity in triplicate)), 435028 (Confirmation (IDE inhibitors in triplicate)), 434984 (Summary …; type: functional
T7 sequence (P14735 whole entry): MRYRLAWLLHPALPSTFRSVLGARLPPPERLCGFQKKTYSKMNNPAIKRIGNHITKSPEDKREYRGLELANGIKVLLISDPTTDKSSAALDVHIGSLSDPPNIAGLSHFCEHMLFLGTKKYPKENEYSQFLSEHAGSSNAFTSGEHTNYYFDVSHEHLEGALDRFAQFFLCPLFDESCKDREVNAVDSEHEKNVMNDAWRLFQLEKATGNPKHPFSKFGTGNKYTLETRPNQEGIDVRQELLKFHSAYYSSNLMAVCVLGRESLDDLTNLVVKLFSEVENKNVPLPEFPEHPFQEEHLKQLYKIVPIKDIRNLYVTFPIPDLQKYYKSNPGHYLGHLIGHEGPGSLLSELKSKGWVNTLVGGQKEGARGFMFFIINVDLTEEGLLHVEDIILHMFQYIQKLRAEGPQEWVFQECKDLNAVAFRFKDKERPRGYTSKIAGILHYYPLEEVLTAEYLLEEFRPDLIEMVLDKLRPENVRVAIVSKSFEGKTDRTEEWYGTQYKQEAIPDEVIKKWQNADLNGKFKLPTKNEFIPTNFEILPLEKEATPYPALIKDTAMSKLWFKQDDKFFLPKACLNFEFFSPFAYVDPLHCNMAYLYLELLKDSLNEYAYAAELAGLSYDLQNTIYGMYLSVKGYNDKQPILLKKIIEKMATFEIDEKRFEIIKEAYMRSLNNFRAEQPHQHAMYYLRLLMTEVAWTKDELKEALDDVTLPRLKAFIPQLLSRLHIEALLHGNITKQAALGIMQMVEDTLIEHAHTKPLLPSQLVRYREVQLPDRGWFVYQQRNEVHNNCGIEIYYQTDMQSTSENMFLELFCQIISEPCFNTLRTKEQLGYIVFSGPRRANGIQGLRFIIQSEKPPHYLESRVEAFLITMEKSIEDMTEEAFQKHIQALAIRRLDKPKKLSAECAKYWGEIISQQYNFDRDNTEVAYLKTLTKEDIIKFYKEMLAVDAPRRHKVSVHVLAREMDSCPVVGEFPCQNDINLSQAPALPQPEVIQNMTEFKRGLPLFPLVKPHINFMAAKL

[16] = molecular target: Ion channel NompC (Danio rerio, UniProt Q7T1G6); experiment: Dose response cell-based high-throughput screening assay for agonists of the transient receptor potential channel N1 (TRPN1). [Related pubchem assays (depositor defined):AID1424, AID1448]; type: functional
Ion channel NompC, sequence (Q7T1G6 whole entry): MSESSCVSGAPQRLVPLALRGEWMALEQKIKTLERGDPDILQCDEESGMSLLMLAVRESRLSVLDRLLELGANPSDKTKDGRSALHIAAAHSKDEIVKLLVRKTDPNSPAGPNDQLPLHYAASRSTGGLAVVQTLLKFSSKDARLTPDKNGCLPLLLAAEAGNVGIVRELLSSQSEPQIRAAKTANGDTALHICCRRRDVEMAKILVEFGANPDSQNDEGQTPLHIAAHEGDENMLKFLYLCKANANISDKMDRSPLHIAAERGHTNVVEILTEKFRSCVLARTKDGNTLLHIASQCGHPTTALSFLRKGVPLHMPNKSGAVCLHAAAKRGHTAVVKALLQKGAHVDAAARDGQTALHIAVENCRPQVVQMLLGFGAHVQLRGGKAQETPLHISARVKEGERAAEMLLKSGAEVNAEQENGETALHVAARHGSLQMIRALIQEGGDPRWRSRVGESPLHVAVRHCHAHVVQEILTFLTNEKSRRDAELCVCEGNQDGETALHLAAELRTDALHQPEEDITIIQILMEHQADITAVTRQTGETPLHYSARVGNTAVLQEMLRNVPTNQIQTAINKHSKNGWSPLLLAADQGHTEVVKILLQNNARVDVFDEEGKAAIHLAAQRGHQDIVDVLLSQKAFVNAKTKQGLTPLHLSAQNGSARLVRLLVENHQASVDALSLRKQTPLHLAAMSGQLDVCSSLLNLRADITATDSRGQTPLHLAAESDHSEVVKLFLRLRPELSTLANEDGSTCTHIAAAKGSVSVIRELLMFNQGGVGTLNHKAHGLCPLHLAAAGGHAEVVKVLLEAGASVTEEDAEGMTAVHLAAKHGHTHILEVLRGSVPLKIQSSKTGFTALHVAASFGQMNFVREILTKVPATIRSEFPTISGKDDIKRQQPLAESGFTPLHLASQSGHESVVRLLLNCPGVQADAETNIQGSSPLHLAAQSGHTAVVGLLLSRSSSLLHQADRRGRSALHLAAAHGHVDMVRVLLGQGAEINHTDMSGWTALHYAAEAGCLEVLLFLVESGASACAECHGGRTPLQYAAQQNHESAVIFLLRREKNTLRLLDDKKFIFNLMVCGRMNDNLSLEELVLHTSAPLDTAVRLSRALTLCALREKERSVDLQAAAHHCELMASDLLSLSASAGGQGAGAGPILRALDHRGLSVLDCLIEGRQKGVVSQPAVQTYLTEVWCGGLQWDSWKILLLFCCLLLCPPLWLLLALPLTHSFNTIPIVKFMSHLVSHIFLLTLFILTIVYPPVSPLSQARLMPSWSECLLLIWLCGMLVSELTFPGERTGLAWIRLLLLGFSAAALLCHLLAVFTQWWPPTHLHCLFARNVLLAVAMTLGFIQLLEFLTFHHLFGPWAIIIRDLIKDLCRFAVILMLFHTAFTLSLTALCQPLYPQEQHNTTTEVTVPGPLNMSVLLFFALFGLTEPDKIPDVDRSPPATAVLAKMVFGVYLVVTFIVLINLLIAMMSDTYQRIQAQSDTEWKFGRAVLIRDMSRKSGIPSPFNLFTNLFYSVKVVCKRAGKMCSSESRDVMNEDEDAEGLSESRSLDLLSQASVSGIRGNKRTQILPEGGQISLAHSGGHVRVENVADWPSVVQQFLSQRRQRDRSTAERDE

[17] = molecular target: Dual specificity tyrosine-phosphorylation-regulated kinase 1A (Rattus norvegicus, UniProt Q63470); type: biochemical, Homo sapiens
[18] = molecular target: T8, Aminopeptidase N (Plasmodium falciparum FcB1/Columbia, UniProt O96935); experiment: P. falciparum M1AAP inhibitors, biochemical, fluorogenic H-Leu-NHMec substrate, 1536-well (AID 1445); set-up: species or system Plasmodium falciparum 3D7, 3D7
T8 sequence (O96935 whole entry): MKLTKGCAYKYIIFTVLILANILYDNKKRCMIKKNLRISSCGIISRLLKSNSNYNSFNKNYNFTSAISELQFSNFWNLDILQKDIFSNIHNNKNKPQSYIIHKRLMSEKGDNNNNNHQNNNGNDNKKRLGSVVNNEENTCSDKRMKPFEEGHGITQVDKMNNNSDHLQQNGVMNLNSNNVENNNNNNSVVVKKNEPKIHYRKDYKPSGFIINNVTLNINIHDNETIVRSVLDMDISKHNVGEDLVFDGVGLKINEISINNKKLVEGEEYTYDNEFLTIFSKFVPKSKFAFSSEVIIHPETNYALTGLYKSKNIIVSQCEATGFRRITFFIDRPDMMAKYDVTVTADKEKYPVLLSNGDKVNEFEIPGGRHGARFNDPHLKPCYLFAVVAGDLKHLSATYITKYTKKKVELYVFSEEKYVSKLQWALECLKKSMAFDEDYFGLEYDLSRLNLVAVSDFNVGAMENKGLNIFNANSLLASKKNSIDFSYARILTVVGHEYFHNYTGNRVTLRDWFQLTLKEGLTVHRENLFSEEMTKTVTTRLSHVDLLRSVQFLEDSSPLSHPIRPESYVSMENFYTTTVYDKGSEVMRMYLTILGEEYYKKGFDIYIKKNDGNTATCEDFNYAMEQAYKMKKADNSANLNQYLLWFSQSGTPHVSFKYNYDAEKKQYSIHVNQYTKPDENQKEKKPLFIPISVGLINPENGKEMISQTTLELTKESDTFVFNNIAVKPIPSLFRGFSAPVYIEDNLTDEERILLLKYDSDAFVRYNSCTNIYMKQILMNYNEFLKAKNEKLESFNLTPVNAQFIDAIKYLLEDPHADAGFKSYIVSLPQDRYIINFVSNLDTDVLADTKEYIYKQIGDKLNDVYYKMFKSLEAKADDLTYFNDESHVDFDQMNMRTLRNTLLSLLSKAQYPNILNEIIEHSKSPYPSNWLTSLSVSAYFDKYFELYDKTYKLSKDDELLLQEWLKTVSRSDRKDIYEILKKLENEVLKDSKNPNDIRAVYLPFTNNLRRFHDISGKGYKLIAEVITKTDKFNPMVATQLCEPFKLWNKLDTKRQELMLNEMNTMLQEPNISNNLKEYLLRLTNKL

T1 sequence (P41145 whole entry): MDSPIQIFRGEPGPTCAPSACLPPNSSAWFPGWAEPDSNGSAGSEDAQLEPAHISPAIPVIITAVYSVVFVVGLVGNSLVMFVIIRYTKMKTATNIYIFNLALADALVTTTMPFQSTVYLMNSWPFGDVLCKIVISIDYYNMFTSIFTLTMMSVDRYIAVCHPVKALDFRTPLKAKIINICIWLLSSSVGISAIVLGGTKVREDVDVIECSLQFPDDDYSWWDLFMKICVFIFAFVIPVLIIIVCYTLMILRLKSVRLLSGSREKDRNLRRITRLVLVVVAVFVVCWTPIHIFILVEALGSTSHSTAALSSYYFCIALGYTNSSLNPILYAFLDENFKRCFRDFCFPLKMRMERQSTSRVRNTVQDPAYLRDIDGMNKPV

EC50 [3]: 0.668 µM (active)
Structure (SMILES): O=C(Cn1c(-c2ccccc2)c[n+]2ccsc12)c1ccc(Br)cc1

IC50 [1]: 10.3 µM (inactive)
IC50 [2]: 3.5 µM (active)
Structure (SMILES): CC(C)N(CCNC(=O)c1ccc(CNS(=O)(=O)Cc2ccccc2)cc1)Cc1ccccc1

EC50 [3]: 3.76 µM (active)
Structure (SMILES): CCCN(CCC)CCCNC(=O)CNC(=O)c1nn(-c2ccc(OC)cc2)c(=O)c2ccccc12

IC50 [4]: > 50 µM (inactive)
Structure (SMILES): COc1cc(NC(=O)c2cc3nc(C4CC4)cc(C(F)(F)F)n3n2)c(OC)cc1Cl

IC50 [6]: 7.11 µM (active)
IC50 [7]: 9.55 µM (active)
IC50 [8]: > 32 µM (inactive)
IC50 [9]: > 32 µM (inactive)
EC50 [10]: > 32 µM (inactive)
EC50 [11]: > 32 µM (inactive)
EC50 [12]: > 32 µM (inactive)
Structure (SMILES): COc1ccc(C2(C(=O)N3CCC(n4nc(-c5ccccc5)oc4=O)CC3)CC2)cc1

Further lines, the compound ahead of its results:

Structure (SMILES): O=C(Cn1c(=O)c2cccn2c2cc(Br)cnc21)NCCCN1CCN(c2ccccc2)CC1
IC50 [1]: > 20 µM (inactive)
IC50 [2]: > 20 µM (inactive)

Structure (SMILES): Cc1c(C(=O)C2=C(O)C(=O)N(CCN3CCOCC3)C2c2cccs2)cnn1-c1ccccc1 (centres undefined)
IC50 [4]: > 50 µM (inactive)

Structure (SMILES): O=C(N/N=C/c1cccc([N+](=O)[O-])c1)c1nc(O)c2ccccc2n1
EC50 [5]: 8.34 µM (active)

Structure (SMILES): Cc1nc(N2CCN(C(=O)c3ccc4c(c3)nc(C)n4C)CC2)c2c3c(sc2n1)CC(C)CC3 (centres undefined)
IC50 [6]: 19.6 µM (inactive)
IC50 [7]: > 32 µM (inactive)
IC50 [8]: > 32 µM (inactive)
IC50 [9]: > 32 µM (inactive)
EC50 [10]: > 32 µM (inactive)
EC50 [11]: 26.8 µM (inactive)
EC50 [12]: > 32 µM (inactive)

Structure (SMILES): O=C(O)c1cccc(-c2ccc(/C=N/Nc3ccc([N+](=O)[O-])cc3)o2)c1
EC50 [13]: > 29.9 µM (not active)
IC50 [14]: > 55.6 µM (not active)
IC50 [15]: > 55.9 µM (not active)
EC50 [16]: 12 µM (inactive)
AC50 [17]: 6.38 µM (active)
IC50 [18]: 27.3 µM (active)
